Target: T1, DJ-1 (Homo sapiens, UniProt Q99497, C106S)
T1 construct: gene PARK7; full-length, N-terminal His-tag removed by TEV protease; Ni-NTA purified recombinant; ~20 kDa
T1 sequence (Q99497 1-189 C106S): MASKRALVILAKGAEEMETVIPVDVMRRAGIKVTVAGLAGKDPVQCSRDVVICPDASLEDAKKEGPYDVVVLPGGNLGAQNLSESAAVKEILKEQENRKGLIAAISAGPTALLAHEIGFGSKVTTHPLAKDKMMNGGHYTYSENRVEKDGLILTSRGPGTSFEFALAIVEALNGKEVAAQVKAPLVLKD
Experiment: end-point NAC assay of remaining cPGA; 1H-NMR
Assay type: biochemical
Conditions: 500 µM cPGA, 2 min, 50 mM sodium phosphate pH 7.0, 25 °C; catalytic cysteine mutant

Compound: O=C1OP(=O)(O)OC[C@H]1O [cPGA]
- end-point NAC assay of remaining cPGA; 1H-NMR: Mutation of the catalytic cysteine (C106S) in DJ-1 completely abolished this activity
